The source of these data is US6468971B1, “Maintaining kidney function during surgery or trauma” (Board of Supervisors of Louisiana State University and …, priority 1998, dated 2002).

Data set [1] has as its system rats during surgery under isoflurane anesthesia. On the set-up: species or system Sprague-Dawley rat. As to conditions: rat, in vivo.
The test system of a further data set is conscious humans. As to conditions: cited from earlier work.
The subject of data set [2] is human patients during general anesthesia and surgery. As to conditions: administered 90 minutes before anesthesia; cited from earlier work.
For data set [3], the system named is isoflurane-anesthetized rats under surgery. The data set is described as follows: Renal response to drug given after start of surgery and isoflurane anesthesia. The format is in vivo, Sprague-Dawley rat.
Data set [4] deals with conscious rats. Briefly: E-2078 effect on urine flow and sodium excretion in conscious rats (Salas et al.). As to conditions: 50 μg i.v., after 15-30 minutes. The format is in vivo, rat.
The test system of data set [5] is conscious rats. The settings on record: 50 μg i.v., cited from earlier work.
The subject of data set [6] is rats anesthetized with pentobarbital. As to conditions: 50 μg i.v.; cited from earlier work.
[7] abbreviates: conscious healthy humans (Rimoy 1991).
[8] abbreviates: intravenous bolus injection during isoflurane anesthesia and surgery.

Entries after “also recorded” stand apart in the source; their conditions may differ.

Regarding `CN1c2ccccc2C(c2ccccc2F)=NCC1CNC(=O)c1ccsc1` (single isomer, unassigned; (+)) [tifluadom, (+)-(1-methyl-2,3-thienyl-carboxyl)-aminomethyl-5-(2-fluorophenyl)H-2,3-dihydro-1,4-benzodiazepine], in data set [1], the “effect on urine flow rate during surgery and isoflurane anesthesia” value was “remained steady (time 10) and consistently increased over time (time 20-90) until a plateau was reached (time 100-120)”; the urinary potassium excretion result is given as “remained low”; the urinary sodium excretion result was “remained low”; the urine flow rate was found to be 20 µL/min. Also, the urine osmolality result in data set [1] was “remained low”.

On to `C=C1CC2(CCC(N3CCCC3)C(N(C)C(=O)Cc3ccc(Cl)c(Cl)c3)C2)OC1=O` (stereo not shown) [U-62,066E, 3,4-dichloro-N-methyl-N-(3-methylene-2-oxo-8-(1-pyrrolidinyl)-1-oxaspiro(4,5)dec-7-yl)-benzeneacetamide], for which, in data set [1], the urinary potassium excretion result is “gradual increase; also recorded: significant and steady increase toward a new plateau level”; the urinary sodium excretion entry was “remained low throughout the duration of the experiment”; the urine flow rate entry was “remained elevated throughout the 6 hours of the study”. The “central nervous system effects” value with conscious humans (3.2 μg/kg dose) was “sedation, significant dysphoria, and no significant euphoria”. For the same compound, the diuretic response entry with conscious humans (5 μg/kg intramuscular) is “pronounced diuretic response”. In the data set on conscious humans (2 to 6 μg/kg intramuscular), the “sodium, potassium, or chloride excretion” value is on record as “without increases in sodium, potassium, or chloride excretion” and the water diuresis result is given as “induced water diuresis”. In addition, in the data set with conscious humans (setting [7]), the urine osmolality result is on record as “decreased urine osmolality” and the urine output entry is “significantly increased urine output”. Besides, the “diuretic potency relative to U-50,488H” value in the data set with conscious humans (in vivo) is reported as “about twice as potent a diuretic as U-50,488H”.

In the case of `Clc1cccc(Cl)c1N=C1NCCN1` [clonidine], in data set [2], the diuresis entry is reported as “significant diuresis during surgery”; the “losses of sodium and potassium” value is “substantial losses of sodium and potassium”; the “mean arterial pressure and heart rate” value was “substantial decrease in mean arterial pressure and heart rate”.

`NS(=O)(=O)c1cc(C(=O)O)c(NCc2ccco2)cc1Cl` [furosemide]: the “effect on urine flow rate” value in data set [3] (continuous intravenous infusion after start of surgery and isoflurane (U-50,488H 100 μg/kg/min)) is recorded as “returned to the impaired pre-drug levels”. The “urine flow rate, peak” value in data set [3] (continuous intravenous infusion after start of surgery and isoflurane (U-50,488H 100 μg/kg/min), saline infusion 55 μl/min) is reported as “about 200 μl/min”. In data set [3] (setting [8]), the “course of urine flow rate after the peak” value is “declined rapidly” and the “urine flow rate, peak” value was “about 300 μl/min”.

Turning to `OC[C@@H](O)[C@@H](O)[C@H](O)[C@H](O)CO` [mannitol], in data set [3] (setting [8]), the “course of urine flow rate after the peak” value was “not maintained and declined to the impaired levels observed before drug administration”; the urinary potassium excretion result is “increase in urinary sodium and potassium excretion”; the urinary sodium excretion entry was “increase in urinary sodium and potassium excretion”; the “urine flow rate, peak” value is listed as “up to 135 μl/min”.

In the case of “(N-methyl-Tyr^1,N-methyl-Arg^7-D-Leu^8)-dynorphin-A(1-8) ethylamide [E-2078]”, in the data set with conscious rats [4], the “increase over the baseline flow rate” value was determined as 78 µL/min. For the same compound, the figures for the urine flow rate (in the data set with conscious rats [5] (after 15-30 minutes); in data set [6]) were 118 ± 22 µL/min and 6.3 ± 1.0 µL/min, respectively. Besides, the urinary sodium excretion was 1.4±0.4 μEq/min in the data set on conscious rats [5] (at 30-45 min) and 0.3±0.1 μEq/min in data set [6].
